Data on one compound can be found in US9757337B2, “Multicompartmental lipid nanoparticles” (CENTRE NATIONAL DE LA RECHERCHE SCIENTIFIQUE—CNRS, priority 2013, dated 2017).

Structures are written as SMILES.

The nature of this data set: Stability of quercetin in various fluids quantified by HPLC assay. The class given is physicochemical. As for the experimental part: To this end, the stability of quercetin in various fluids was quantified by means of an HPLC assay. The various fluids studied were simulated gastric fluid (SGF, US Pharmacopeia) at room temperature and at 37° C., simulated intestinal fluid (SIF, US Pharmacopeia), 10 mM HEPES buffer (pH 7.4) and room-temperature water.

`O=c1c(O)c(-c2ccc(O)c(O)c2)oc2cc(O)cc(O)c12` [quercetin]: for the setting “more acidic fluids (SGF), samples over 24 hours”, the “stability in more acidic fluids compared with room-temperature water” value is “more stable”. Under “room-temperature water, within 17 hours”, the quercetin degraded result is recorded as “about 50%”.
